Source: patent US4716150A, “Synthetic peptides and use thereof in preparing calmodulin antisera” (Vanderbilt University, priority 1985, dated 1987)

Columns and labels:
anti-calmodulin serum = details: one antiserum; vertebrate calmodulin residues 137 to 143; cited from earlier work
intact calmodulin [1] = details: cited from earlier work
intact calmodulin [2] = test: Injection of immunogen into laboratory rabbits to elicit antisera against calmodulin; format: in vivo; details: merely injecting calmodulin into laboratory rabbits
Source text: Using one of the rabbit antisera, we proceeded to test peptide segments encompasssing the entire calmodulin molecule to locate one or more immunoreactive sites in the protein. See Van Eldik, L. J. and Watterson D. M. "Reproducible Production of Antiserum against Vertebrate Calmodulin and Determination of the Immunoreactive Site" Journal of Biological Chemistry Volume 256 (9), pp. 4205-4210 (1981). Upon completion of these studies we proposed than an immunoreactive site of calmodulin is contained in an 18 residue region (residues 127-144) within the COOH-terminal domain of calmodulin.
However, although the minimal immunoreactive heptapeptide site of calmodulin met both of the above requirements, we were unable to produce anti-calmodulin sera when we injected laboratory rabbits with a synthetic heptapeptide corresponding to the immunoreactive site of the protein. […] Van Eldik, et al. "Elucidation of a Minimal Immunoreactive Site of Vertebrate Calmodulin" (cited above).

Substance | immunoreactivity with anti-calmodulin serum compared with the entire protein (anti-calmodulin serum) | reactivity of the elicited antibodies (intact calmodulin [1]; antibodies from injected rabbits tested against synthetic heptapeptide and intact calmodulin) | antibody response in rabbits (immunogenicity) (intact calmodulin [1]; laboratory rabbits injected with synthetic heptapeptide) | anti-calmodulin serum titer after injection (intact calmodulin [2])
asparagine-tyrosine-glutamic acid-glutamic acid-phenylalanine-valine-glutamine [synthetic heptapeptide] | as immunoreactive as the entire 148-residue protein | reacted with the synthetic heptapeptide but not with intact calmodulin | elicited an antibody response | 
calmodulin |  |  |  | inability to develop an anti-calmodulin serum of useful titer
